Data taken from ChEMBL document CHEMBL2074034, “Characterization of cloned mouse Na+/taurocholate cotransporting polypeptide by transient expression in COS-7 cells” (Biosci Biotechnol Biochem, 2002).

Experiments:
Format in all cases: functional, cell-based
Conditions in all cases: monkey, cos-7, 72 µM
[1] = target: T1, Hepatic sodium/bile acid cotransporter (Mus musculus, UniProt O08705); assay: TP_TRANSPORTER: inhibition of Taurocholate uptake (Taurocholate: 0.72 uM, Lithocholate: 72 uM) in Ntcp-expressing COS-7 cells
T1 sequence (O08705 whole entry): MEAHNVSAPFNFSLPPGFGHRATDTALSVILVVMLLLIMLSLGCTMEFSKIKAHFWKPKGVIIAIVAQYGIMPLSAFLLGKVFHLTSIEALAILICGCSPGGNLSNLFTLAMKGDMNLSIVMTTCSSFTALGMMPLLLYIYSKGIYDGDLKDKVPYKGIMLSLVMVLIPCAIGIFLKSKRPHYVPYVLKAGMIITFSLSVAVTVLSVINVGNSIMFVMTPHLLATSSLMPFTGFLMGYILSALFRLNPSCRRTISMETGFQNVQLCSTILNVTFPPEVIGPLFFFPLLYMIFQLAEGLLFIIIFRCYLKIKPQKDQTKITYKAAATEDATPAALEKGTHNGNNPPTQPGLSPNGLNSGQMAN

[2] = target: T1, Hepatic sodium/bile acid cotransporter; assay: TP_TRANSPORTER: inhibition of Taurocholate uptake (Taurocholate: 0.72 uM, CDCA: 72 uM) in Ntcp-expressing COS-7 cells
[3] = target: T1, Hepatic sodium/bile acid cotransporter; assay: TP_TRANSPORTER: inhibition of Taurocholate uptake (Taurocholate: 0.72 uM, Deoxycholate: 72 uM) in Ntcp-expressing COS-7 cells
[4] = target: T1, Hepatic sodium/bile acid cotransporter; assay: TP_TRANSPORTER: inhibition of Taurocholate uptake (Taurocholate: 0.72 uM, GC: 72 uM) in Ntcp-expressing COS-7 cells

SMILES: C[C@H](CCC(=O)O)[C@H]1CC[C@H]2[C@@H]3CC[C@@H]4C[C@H](O)CC[C@]4(C)[C@H]3CC[C@]12C [LITHOCHOLIC ACID]
- Activity [1]: inhibitor [(at a rough estimate) 5 % of control]

SMILES: C[C@H](CCC(=O)O)[C@H]1CC[C@H]2[C@@H]3[C@H](O)C[C@@H]4C[C@H](O)CC[C@]4(C)[C@H]3CC[C@]12C [CHENODIOL]
- Activity [2]: inhibitor [(at a rough estimate) 20 % of control]

SMILES: C[C@H](CCC(=O)O)[C@H]1CC[C@H]2[C@@H]3CC[C@@H]4C[C@H](O)CC[C@]4(C)[C@H]3C[C@H](O)[C@]12C [DEOXYCHOLIC ACID]
- Activity [3]: inhibitor [(at a rough estimate) 20 % of control]

SMILES: C[C@H](CCC(=O)NCC(=O)O)[C@H]1CC[C@H]2[C@@H]3[C@H](O)C[C@@H]4C[C@H](O)CC[C@]4(C)[C@H]3C[C@H](O)[C@]12C [GLYCOCHOLIC ACID]
- Activity [4]: inhibitor [(at a rough estimate) 40 % of control]
